# US20220264887A1, “Foam Formulations For Decontamination Of Surfaces With Minimum Wastewater” (The Trustees of Columbia University in the City of New York, priority 2020, published 2022)
# Tests used:
# Assay type in all cases: physicochemical
# [1] = Surface tension / CMC of surfactants and mixtures by tensiometer, with and without hypochlorite; conditions: for No hypochlorite (CMC): after 24 hours of preparation; for change of CMC value in the presence of hypochlorite: presence vs absence of hypochlorite
# Experimental: Thus, the foam formulations were stable in terms of surfactants retaining their surface activity for the foam-deployment-on-surface application.
# The surface tension values for pure surfactants and their mixtures—formulations—were determined in the presence and absence of hypochlorite (Table 1). […] The surface tension values for CAPB, taurate, SDS, and surfactin determined after 24 hours of preparation of these solutions, and in the absence and presence of hypochlorite are given in Table 1 and FIGS. 1, 2, and 3; Taurate was used for fundamental reasons and was not considered in preparing the final formulation(s). (The surface tension values were determined using a tensiometer.)
# (§1) The CMC values for these surfactants in the absence of hypochlorite, were as reported in the literature. […] A chlorine strip was used to determine hypochlorite degradation.
# [2] = Hypochlorite degradation in formulation by chlorine strip; conditions: after 24 hrs
# Source text: as §1
# [3] = Raman microscopy of hypochlorite degradation (ClO-/ClO4- peak ratio); conditions: freshly prepared 1% solution in water
# Source text: To monitor degradation of hypochlorite in the formulations (liquids), foams, and deposit residues, one can use Raman microscopy. Raman spectra were acquired using a Horiba Aramis confocal Raman microscope with a 10× objective (numerical aperture 0.25), a 1200 grooves/mm diffraction grating, and a 17-mW 633-nm HeNe laser without attenuation. The monochromator was calibrated before each set of measurements using the Si peak at 520.7 cm-1 of a Si wafer reference sample.
# The degradation of hypochlorite ion (ClO—) was assessed by the intensity ratio of the main Raman peaks of ClO— at 715 cm-1 and perchlorate ClO4- at 937 cm-1 (FIG. 8). Perchlorate is a product of the final degradation of hypochlorite.
# [4] = presence of hypochlorite 0.7-1 wt. % CL
Compound,Min surface tension ([1]; absence of hypochlorite) [mN/m],No hypochlorite (CMC) ([1]; absence of hypochlorite) [g/L],"0.7-1% hypochlorite (CMC) [1, 4] [g/L]","Min surface tension [1, 4] [mN/m]",change of CMC value in the presence of hypochlorite [1],decrease of hypochlorite concentration in the formulation [2],ClO-/ClO4- Raman peak ratio [3],fraction of hypochlorite already degraded ([3]; from peak ratio)
"CCCCCCCCCCCCOS(=O)(=O)[O-].[Na+] [SDS, Sodium dodecyl sulfate]",28,2.4,2.6,28,increased slightly,,,
NCCS(=O)(=O)O [Taurate],,,,,increased slightly,,,
"[Na+].[O-]Cl [hypochlorite, sodium hypochlorite]",,,,,,30-40%,about 2,about 30%
cocamidopropyl betaine [CAPB],28,0.3,0.31,28,a small decrease or no change,,,
